# Values quoted from earlier work in patent US9943503B1, “Pharmaceutical composition for treating bacterial and viral infections” (priority 2017, dated 2018).
# Tested on: common cold
# Settings: adults; review of evidence
row,Compound,"prevention of the common cold, evidence"
1,C=CCS[S+]([O-])CC=C (centres unmarked) [Allicin],highly effective
2,"O=C1O[C@H]([C@@H](O)CO)C(O)=C1O [vitamin C, ascorbic acid]",demonstrated benefit
